In patent US7449480B2, “Small molecule inhibitors of HER2 expression” (Baylor College of Medicine, priority 2002, dated 2008):
“Also recorded” adds a separate entry of the source.

Key:
Her2 = Her2 protein expression by western blot of cell lysates; format: cell-based, human; settings: SK-BR3 cells, 7.3 μM, 24 hrs; α-tubulin not reduced; listed as adamanolol
Excerpt: Sur-2 is a human homolog of […] elegans Sur-2, a protein of unknown function whose mutations suppress the phenotype of an activated ras mutation (Singh et al., 1995), and it has been linked to the transcription-activating function of the adenovirus E1A protein and the Elk-1 transcription factor. […] To test this, we designed a cell-permeable peptide that binds Sur-2 (referred to as TAT-ESX129-145). The design takes advantage of the binding affinity of ESX129-145 and the cell internalization property of the 11-aa peptide derived from the HIV TAT protein. We first examined whether TAT ESX129-145 reduces endogenous expression of the Her2 gene in three Her2-overexpressing breast cancer cell lines, SK-BR-3, MDA-MB-453, and […] (FIG. 4). Cells were incubated in the presence or absence of TAT-ESX129-145, and the protein levels of Her2 were examined by Western blot analyses of normalized amounts of cell lysates.
Her2-overexpressing SK-BR3 cells were treated by 7.3 μM of adamanolol for 24 hrs, and whole cell lysates were analyzed by western blots. […]
SK-BR3 cells were treated by 7 μM of wrenchnolol for 24 hrs, and whole cell lysates were analyzed by western blots. […]

[1] = system: SK-BR3 breast cancer cells; test: Cell viability assay (WST-1) in SK-BR3 breast cancer cells; format: cell-based, human; settings: for IC50: Homo sapiens, SK-BR-3, 48 hrs incubation, WST-1; for ability to kill SK-BR3 cells (biological activity, in words): compared with adamanolol
Procedure: SK-BR3 breast cancer cells were plated on 96-well plates at density of 5×10^3 cells/well and maintained for 24 hrs. The cells were then incubated with varied concentrations of each compound for 48 hrs, followed by addition of Premix WST-1 Solution (Takara). Cell viability was estimated by measuring absorbance at 450 nm after 1 hr with a SPECTRAmax microplatereader.

VP16 activation domain = test: Transcription reporter gene assay (GAL4 fusion, SEAP), VP16 activation domain; format: cell-based; settings: HEK293Tag cells, 24 hour incubation with adamanolol
Procedure: (§1) Mammalian expression vectors each encoding the activation domain of ESX, VP16, or NFκBp65 fused with the GAL4 DNA-binding domain were used. Each expression construct was co-transfected to HEK293Tag human kidney cells together with a reporter plasmid in which the production of secreted alkaline phosphatase (SEAP) is under control of an IL-2 promoter carrying five GAL4 binding sites. After a 24 hour incubation in the presence or absence of adamanolol, an aliquot of the culture was assayed for SEAP activity. The total amounts of transfected DNA were normalized.
(§2) mammalian expression vectors, each encoding the activation domain of ESX, VP16, or NF-κB p65 fused with the GAL4 DNA-binding domain (amino acids 1-94), were used. Each expression construct was co-transfected to HEK293Tag human kidney cells together with a reporter plasmid in which the production of secreted alkaline phosphatase (SEAP) is under control of an IL2 promoter carrying five GAL4 binding sites. After 10-hr incubation with wrenchnolol (20 μM), an aliquot of the culture was assayed for SEAP activity.

MDA-MB468 = test: Growth and viability of Her2-negative MDA-MB468 cells; format: cell-based, human; settings: no detectable levels of Her2; 24 hrs
Procedure: (§3) In contrast to the Her2-overexpressing cells, MDA-MB-468, a breast cancer cell line with no detectable levels of Her2, was resistant to TAT-ESX129-145 (FIGS. 5A and 5B). […] The effects of TAT-ESX129-145 on an MCF7 cell line stably transfected with the Her2 gene were examined.
(§4) The breast cancer cells were plated on 96-well plates at the density of 5×10^3 cells/well and maintained for 24 hrs. Adamanolol was added to the medium at varied concentrations and incubated for another 24 hrs. Premix WST-1 solution (Takara) was added to each well and incubated for 2 hrs. Cell viability was estimated by measuring absorbance at 450 nm with a SPECTRAmax microplate reader.

BT474 cells = test: Animal study: BT474-derived tumors in mammary fat pads of nude mice; format: in vivo; settings: 20 mg/kg daily intraperitoneal, 5 consecutive days each week for two weeks
Procedure: Breast cancer cell lines derived from BT474 after one round (BT474M1) or two rounds (BT474M2) of tumorigenic selection were used. 5×10^6 cells were injected with Matrigel into mammary fat pads of nude mice. Two tumors were inoculated for each animal and each treatment group contained 5 animals. Five weeks after inoculation when the tumors were well established (about 100 mm^3 in average) the treatment started (day 0 in the figure). Each mouse received adamanolol (7QH2) at a daily dose of 20 mg/kg through intraperitoneal injection for 5 consecutive days in each week for two weeks. Tumor volumes were measured every three days. The percentile of the tumor volume related to the initial volume at day 0 was plotted for each time point. Adamanolol is a potent tumor growth inhibitor of HER-2/neu-overexpressing cancer cells in vivo.

ESX activation domain = test: Transcription reporter gene assay (GAL4 fusion, SEAP), ESX activation domain; format: cell-based, human
Procedure: as §1, §2

[2] = system: Her2-positive breast cancer cell lines (SK-BR3, MDA-MB453, and MCF-7); test: Growth and viability of Her2-positive breast cancer cell lines; format: cell-based, human; settings: SK-BR3, MDA-MB453, MCF-7, 24 hrs
Procedure: as §3, §4

ESX-Sur-2 interaction = molecular target: T1, ESX-Sur-2 interaction (Homo sapiens, UniProt Q9ULK4); test: Inhibition of the ESX-Sur-2 interaction in vitro (fluorescence of FITC-ESX129-145 with GST-Sur2352-625); format: binding; settings: for IC50: FITC-ESX129-145 (152 nM), GST-Sur2352-625 (212 nM); for inhibition of the ESX-Sur-2 interaction in vitro (in words): in vitro fluorescence assay
T1 construct: made in house
T1 sequence (Q9ULK4 352-625): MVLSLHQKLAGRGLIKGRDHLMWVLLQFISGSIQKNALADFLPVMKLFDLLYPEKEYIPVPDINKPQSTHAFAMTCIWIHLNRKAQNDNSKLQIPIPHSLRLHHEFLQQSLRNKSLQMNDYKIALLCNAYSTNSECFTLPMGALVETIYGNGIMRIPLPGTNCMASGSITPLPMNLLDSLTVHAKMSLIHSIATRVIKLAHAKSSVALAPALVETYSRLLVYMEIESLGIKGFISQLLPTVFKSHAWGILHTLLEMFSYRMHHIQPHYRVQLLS
Procedure: To monitor the ESX-DRIP130 interaction, we labeled ESX129-145 with fluorescein isothiocyanate (FITC; Pierce) at the Lys144 position and measured its fluorescence spectra upon adding the glutatathione-S′-transferase (GST) fusion of DRIP130352-625. ESX129-145 was synthesized by standard Fmoc chemistry (the NH2 terminus was capped by an acetyl group during the synthesis) and purified by HPLC. The peptide was then coupled with FITC at the Lys144 position in a conjugation buffer (100 mM carbonate-bicarbonate buffer, pH 9) in dark and purified by NAP-5 desalting column (Amersham). The labeled peptide was quantified by UV and visible absorbance.
GST-Sur-2352-625 was expressed and purified. Varied concentrations of the fusion protein were added to FITC-ESX129-145 (10 nM) in phosphate buffered saline containing 2% (v/v) ethanol, and the fluorescence spectra of FITC-ESX129-145 were measured by an ABI LS-50B Fluorescence Spectrometer (Ex: 490 nm). The dissociation constant of the interaction was estimated to be 12 μM through the emission perturbation at 522 nm.
To examine the effects of adamanolol on the interaction in vitro, the ethanol component of the binding buffer was replaced with an ethanolic solution of adamanolol. The fractions of FITC-ESX129-145 (10 nM) bound to 50 μM of GST-Sur-2352-625 were estimated by measuring fluorescence emission at 522 nm. ESX129-145 and pindolol were used as positive and negative controls, respectively.
In another series of derivatives (the R3 substituents in Table 1), the adamantane group of adamanolol was substituted (11a-d). […] The binding fractions were calculated on the basis of fluorescence spectra of FITC-ESX129-145 (152 nM) in presence of GST-Sur2352-625 (212 nM) and varied concentrations of each adamanolol derivative.

[3] = Solubility in neutral aqueous solution; format: physicochemical
Procedure: When the amino group of the handle was protonated, wrenchnolol (7b) and its aminopropyl version (7a) became soluble up to ˜1 mM in neutral aqueous solution. The high water solubility enabled NMR analysis of these molecules in a buffered aqueous solution, and their proton signals were completely assigned through a combination of NOESY, DQF-COSY, and HOHAHA data sets (Table S1).

IC50 [1] | IC50 (ESX-Sur-2 interaction) | inhibition of the ESX-Sur-2 interaction in vitro (in words) (ESX-Sur-2 interaction) | SMILES | ability to kill SK-BR3 cells (biological activity, in words) [1] | further results
6.4 ± 1.8 µM | 15.4 ± 0.3 µM | inhibits | CC(C)N(CC(O)COc1cccc2[nH]ccc12)C(=O)N1CCC(C2CCN(C(=O)C34CC5CC(CC(C5)C3)C4)CC2)CC1 (stereo not drawn) [Compound 4a, 1′-(adamantane-1-carbonyl)-[4,4′]bipiperidinyl-1-carboxylic acid [2-hydroxy-3-3-(1H-indol-4-yloxy)-propyl]-isopropyl-amide] | – | expression of Her2 protein (Her2): significantly reduced; also recorded: inhibition of Her2; effect on the VP16 activation domain (VP16 activation domain): little effects; viability of MDA-MB468 (MDA-MB468): much milder effects; tumor growth (tumor volume relative to day 0) (BT474 cells): significant growth suppression; ability of the ESX activation domain to stimulate transcription (ESX activation domain; HEK293Tag cells, 24 hour incubation with adamanolol): impaired; also recorded: selectively inhibits; viability of Her2-positive breast cancer cell lines ([2]; listed as Adamanolol): impaired the viability; viability of Her2-positive breast cancer cell lines ([2]; listed as adamanolol): selectively impairs the cell growth and viability
4.1 ± 0.2 µM | 15.1 ± 0.8 µM | – | CC(C)CN(CC(O)COc1cccc2[nH]ccc12)C(=O)N1CCC(C2CCN(C(=O)C34CC5CC(CC(C5)C3)C4)CC2)CC1 (stereo not drawn) [Compound 4b] | – | –
> 100 µM | > 40 µM | abolished | O=C(NCC(O)COc1cccc2[nH]ccc12)N1CCC(C2CCN(C(=O)C34CC5CC(CC(C5)C3)C4)CC2)CC1 (stereo not drawn) [Compound 4d] | abolished; also recorded: little activity | ability of the ESX activation domain to activate the reporter gene (ESX activation domain; HEK293 cells, 20 μM, 10-hr incubation): almost no effects; also recorded: little effects
11.7 ± 0.1 µM | 11.9 ± 0.7 µM | – | CC(C)(C)OC(=O)NCCCN(CC(O)COc1cccc2[nH]ccc12)C(=O)N1CCC(C2CCN(C(=O)C34CC5CC(CC(C5)C3)C4)CC2)CC1 (stereo not drawn) [Compound 4e] | – | –
2.7 ± 0.3 µM | 10 ± 1 µM | increased | Cc1ccc(S(=O)(=O)n2ccc3c(OCC(O)CN(C(=O)N4CCC(C5CCN(C(=O)C67CC8CC(CC(C8)C6)C7)CC5)CC4)C(C)C)cccc32)cc1 (stereo not drawn) [Compound 5a, N-tosyladamanolol] | increased the potency | –
5 ± 0.3 µM | 12 ± 0.9 µM | – | CC(C)N(CC(O)COc1cccc2c1ccn2S(=O)(=O)c1cccc2cccnc12)C(=O)N1CCC(C2CCN(C(=O)C34CC5CC(CC(C5)C3)C4)CC2)CC1 (stereo not drawn) [Compound 5b] | – | –
4.7 ± 0.1 µM | 10.2 ± 1.1 µM | – | Cc1ccc(S(=O)(=O)n2ccc3c(OCC(O)CN(CCCN)C(=O)N4CCC(C5CCN(C(=O)C67CC8CC(CC(C8)C6)C7)CC5)CC4)cccc32)cc1 (stereo not drawn) [Compound 7a] | – | solubility [3]: ~1000 µM
> 100 µM | > 40 µM | almost no ability to block | CC(=O)N1CCC(C2CCN(C(=O)N(CC(O)COc3cccc4[nH]ccc34)C(C)C)CC2)CC1 (stereo not drawn) [Compound 11a] | significant loss of the biological activity | –
> 100 µM | > 40 µM | abolished | COCC(O)CN(C(=O)N1CCC(C2CCN(C(=O)C34CC5CC(CC(C5)C3)C4)CC2)CC1)C(C)C (stereo not drawn) [Compound 12a] | abolished | –
